This assay can be described thus: Binding affinity to dsDNA oligomer GAGGCCTC (unknown origin) assessed as binding constant incubated for 16 hrs in presence of […] by fluorescence based assay.

Bounds are passed on as bounds.

Turning to `COC(=O)[C@H](Cc1ccccc1)NC(=O)[C@@H](OC)[C@@H]1Cc2cc3cc(O[C@H]4C[C@@H](O[C@H]5C[C@@H](O)[C@H](O)[C@@H](C)O5)[C@H](O)[C@@H](C)O4)c(C)c(O)c3c(O)c2C(=O)[C@H]1O[C@H]1C[C@@H](O[C@H]2C[C@@H](O[C@H]3C[C@](C)(O)[C@H](O)[C@@H](C)O3)[C@H](O)[C@@H](C)O2)[C@H](O)[C@@H](C)O1`, the Kd was 1600 nM. Under `CO[C@H](C(=O)[C@@H](O)[C@@H](C)O)[C@@H]1Cc2cc3cc(O[C@H]4C[C@@H](O[C@H]5C[C@@H](O)[C@H](O)[C@@H](C)O5)[C@H](O)[C@@H](C)O4)c(C)c(O)c3c(O)c2C(=O)[C@H]1O[C@H]1C[C@@H](O[C@H]2C[C@@H](O[C@H]3C[C@](C)(O)[C@H](O)[C@@H](C)O3)[C@H](O)[C@@H](C)O2)[C@H](O)[C@@H](C)O1` stands below 1000 nM.

For orientation: Kd means the equilibrium constant for the complex coming apart.

Source of the values: ChEMBL document CHEMBL4373639, “How mithramycin stereochemistry dictates its structure and DNA binding function” (Medchemcomm, 2019).
